Our source for the inhibition values is patent US11629143B2, “HipK4 inhibitors and uses thereof” (Vibliome Therapeutics, LLC, priority 2020, dated 2023).

Holding throughout (assay): Kinase panel (mobility shift)
Common to all, as to assay type: biochemical

Assay [1] addresses LCK (Homo sapiens, UniProt P06239). Summed up:
(§1)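 Tested at a single 5 um concentration within a 299-kinase panel, compounds were scored by electrophoretic mobility shift of a fluorescent substrate into product. Categories: A, 95% or greater; B, 90%-94%; C, 80%-89%.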

For assay [2], the target named is KIT (Homo sapiens, UniProt P10721). The method in brief:
as §1

In assay [3] the target is P38-b (Homo sapiens, UniProt Q15759). The method in brief:
as §1

For assay [4], the target named is T1, TAOK2 (Homo sapiens, UniProt Q9UL54).
T1 sequence (Q9UL54 1-1235): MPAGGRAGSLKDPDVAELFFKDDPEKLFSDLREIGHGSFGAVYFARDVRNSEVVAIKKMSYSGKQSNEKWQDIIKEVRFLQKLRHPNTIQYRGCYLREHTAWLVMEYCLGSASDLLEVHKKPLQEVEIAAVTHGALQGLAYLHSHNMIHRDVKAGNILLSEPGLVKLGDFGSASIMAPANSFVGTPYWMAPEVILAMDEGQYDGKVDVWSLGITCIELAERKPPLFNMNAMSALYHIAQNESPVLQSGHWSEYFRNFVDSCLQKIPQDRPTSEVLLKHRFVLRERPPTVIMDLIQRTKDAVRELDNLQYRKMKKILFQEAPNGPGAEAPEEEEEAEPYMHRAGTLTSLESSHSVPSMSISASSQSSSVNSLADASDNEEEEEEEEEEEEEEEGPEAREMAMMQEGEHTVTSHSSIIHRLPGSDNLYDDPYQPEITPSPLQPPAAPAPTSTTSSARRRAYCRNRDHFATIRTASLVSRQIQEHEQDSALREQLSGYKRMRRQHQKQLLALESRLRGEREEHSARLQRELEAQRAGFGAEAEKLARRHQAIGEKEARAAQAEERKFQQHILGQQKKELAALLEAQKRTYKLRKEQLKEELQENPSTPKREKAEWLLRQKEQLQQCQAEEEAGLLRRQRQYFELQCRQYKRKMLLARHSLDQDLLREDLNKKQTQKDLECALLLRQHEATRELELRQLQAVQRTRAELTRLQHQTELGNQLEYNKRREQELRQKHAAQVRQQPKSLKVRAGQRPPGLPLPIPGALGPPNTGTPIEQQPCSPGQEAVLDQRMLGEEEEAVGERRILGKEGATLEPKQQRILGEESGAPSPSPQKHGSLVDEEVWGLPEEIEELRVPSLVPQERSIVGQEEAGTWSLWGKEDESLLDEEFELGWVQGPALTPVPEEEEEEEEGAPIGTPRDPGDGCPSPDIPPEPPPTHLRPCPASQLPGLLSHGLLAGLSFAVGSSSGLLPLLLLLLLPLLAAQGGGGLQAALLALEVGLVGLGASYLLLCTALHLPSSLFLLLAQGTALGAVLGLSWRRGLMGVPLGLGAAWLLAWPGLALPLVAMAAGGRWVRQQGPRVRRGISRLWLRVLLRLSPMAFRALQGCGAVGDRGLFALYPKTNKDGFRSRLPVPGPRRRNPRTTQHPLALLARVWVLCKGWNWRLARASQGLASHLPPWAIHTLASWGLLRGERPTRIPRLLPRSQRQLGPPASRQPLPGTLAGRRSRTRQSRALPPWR
Summed up:
as §1

The target in assay [5] is HIPK3 (Homo sapiens, UniProt Q9H422). Summed up:
as §1

The target of assay [6] is PDGFR-a (Homo sapiens, UniProt P16234). The method in brief:
as §1

Assay [7] addresses T2, TYRO3 (Homo sapiens, UniProt Q06418).
T2 sequence (Q06418 41-890): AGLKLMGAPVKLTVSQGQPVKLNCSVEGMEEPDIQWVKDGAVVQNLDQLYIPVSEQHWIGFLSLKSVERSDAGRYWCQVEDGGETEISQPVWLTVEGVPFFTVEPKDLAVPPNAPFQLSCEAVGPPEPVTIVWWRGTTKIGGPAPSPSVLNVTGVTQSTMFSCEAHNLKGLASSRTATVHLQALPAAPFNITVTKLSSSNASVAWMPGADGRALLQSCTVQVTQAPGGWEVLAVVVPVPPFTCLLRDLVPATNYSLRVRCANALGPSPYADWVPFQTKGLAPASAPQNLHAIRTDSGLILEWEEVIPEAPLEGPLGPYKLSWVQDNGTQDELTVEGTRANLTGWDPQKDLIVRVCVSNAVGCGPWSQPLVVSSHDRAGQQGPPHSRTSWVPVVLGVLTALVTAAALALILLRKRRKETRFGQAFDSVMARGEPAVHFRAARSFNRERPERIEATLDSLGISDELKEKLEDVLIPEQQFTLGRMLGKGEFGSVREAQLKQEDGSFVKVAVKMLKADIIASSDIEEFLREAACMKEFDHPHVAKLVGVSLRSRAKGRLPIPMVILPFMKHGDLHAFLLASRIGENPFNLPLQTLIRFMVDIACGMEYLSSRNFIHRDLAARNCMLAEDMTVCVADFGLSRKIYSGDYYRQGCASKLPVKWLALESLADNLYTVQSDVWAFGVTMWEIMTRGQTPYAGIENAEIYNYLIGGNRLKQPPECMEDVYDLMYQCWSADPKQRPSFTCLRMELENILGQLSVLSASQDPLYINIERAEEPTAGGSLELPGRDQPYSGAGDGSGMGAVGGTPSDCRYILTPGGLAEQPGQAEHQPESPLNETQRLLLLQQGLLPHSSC
Summed up: as §1

Sequence of KIT (P10721 26-976, species assumed): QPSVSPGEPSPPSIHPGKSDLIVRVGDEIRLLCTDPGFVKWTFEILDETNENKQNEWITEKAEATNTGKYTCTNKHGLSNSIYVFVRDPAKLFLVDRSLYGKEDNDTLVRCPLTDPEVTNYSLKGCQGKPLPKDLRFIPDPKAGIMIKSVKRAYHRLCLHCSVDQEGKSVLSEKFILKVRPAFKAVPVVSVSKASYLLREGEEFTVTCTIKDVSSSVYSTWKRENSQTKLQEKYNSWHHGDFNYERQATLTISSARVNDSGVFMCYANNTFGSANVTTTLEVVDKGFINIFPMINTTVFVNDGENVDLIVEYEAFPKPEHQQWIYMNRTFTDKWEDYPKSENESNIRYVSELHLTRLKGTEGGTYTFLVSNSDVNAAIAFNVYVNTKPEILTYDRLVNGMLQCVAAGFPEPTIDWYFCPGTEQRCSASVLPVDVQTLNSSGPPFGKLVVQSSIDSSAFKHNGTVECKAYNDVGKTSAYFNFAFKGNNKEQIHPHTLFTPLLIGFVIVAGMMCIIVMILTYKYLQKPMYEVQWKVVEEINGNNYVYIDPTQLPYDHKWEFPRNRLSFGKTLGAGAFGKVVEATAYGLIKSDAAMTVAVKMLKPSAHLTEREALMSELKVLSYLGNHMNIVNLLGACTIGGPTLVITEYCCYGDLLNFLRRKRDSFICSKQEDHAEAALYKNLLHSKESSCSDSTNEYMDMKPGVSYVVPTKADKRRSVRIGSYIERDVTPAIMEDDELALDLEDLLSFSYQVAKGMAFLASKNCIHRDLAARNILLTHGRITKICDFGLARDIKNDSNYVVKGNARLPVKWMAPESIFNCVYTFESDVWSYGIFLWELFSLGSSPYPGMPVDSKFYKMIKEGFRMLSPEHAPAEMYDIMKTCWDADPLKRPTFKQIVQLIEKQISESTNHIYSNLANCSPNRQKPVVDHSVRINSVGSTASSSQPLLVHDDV
Sequence of LCK (P06239 whole entry, species assumed): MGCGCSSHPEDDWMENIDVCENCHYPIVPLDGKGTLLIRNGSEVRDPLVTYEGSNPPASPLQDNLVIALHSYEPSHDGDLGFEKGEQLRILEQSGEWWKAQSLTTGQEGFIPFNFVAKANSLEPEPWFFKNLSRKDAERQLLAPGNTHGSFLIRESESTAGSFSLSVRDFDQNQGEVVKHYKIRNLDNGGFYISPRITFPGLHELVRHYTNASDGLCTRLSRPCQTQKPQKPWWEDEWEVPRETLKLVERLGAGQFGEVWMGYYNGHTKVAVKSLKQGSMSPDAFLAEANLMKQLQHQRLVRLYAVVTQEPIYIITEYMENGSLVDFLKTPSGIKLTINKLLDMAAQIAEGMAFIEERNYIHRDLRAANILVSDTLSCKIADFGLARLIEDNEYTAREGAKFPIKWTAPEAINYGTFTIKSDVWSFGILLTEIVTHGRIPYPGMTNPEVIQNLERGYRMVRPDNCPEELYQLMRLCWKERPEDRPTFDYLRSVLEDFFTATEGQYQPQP
Sequence of PDGFR-a (P16234 24-1089, species assumed): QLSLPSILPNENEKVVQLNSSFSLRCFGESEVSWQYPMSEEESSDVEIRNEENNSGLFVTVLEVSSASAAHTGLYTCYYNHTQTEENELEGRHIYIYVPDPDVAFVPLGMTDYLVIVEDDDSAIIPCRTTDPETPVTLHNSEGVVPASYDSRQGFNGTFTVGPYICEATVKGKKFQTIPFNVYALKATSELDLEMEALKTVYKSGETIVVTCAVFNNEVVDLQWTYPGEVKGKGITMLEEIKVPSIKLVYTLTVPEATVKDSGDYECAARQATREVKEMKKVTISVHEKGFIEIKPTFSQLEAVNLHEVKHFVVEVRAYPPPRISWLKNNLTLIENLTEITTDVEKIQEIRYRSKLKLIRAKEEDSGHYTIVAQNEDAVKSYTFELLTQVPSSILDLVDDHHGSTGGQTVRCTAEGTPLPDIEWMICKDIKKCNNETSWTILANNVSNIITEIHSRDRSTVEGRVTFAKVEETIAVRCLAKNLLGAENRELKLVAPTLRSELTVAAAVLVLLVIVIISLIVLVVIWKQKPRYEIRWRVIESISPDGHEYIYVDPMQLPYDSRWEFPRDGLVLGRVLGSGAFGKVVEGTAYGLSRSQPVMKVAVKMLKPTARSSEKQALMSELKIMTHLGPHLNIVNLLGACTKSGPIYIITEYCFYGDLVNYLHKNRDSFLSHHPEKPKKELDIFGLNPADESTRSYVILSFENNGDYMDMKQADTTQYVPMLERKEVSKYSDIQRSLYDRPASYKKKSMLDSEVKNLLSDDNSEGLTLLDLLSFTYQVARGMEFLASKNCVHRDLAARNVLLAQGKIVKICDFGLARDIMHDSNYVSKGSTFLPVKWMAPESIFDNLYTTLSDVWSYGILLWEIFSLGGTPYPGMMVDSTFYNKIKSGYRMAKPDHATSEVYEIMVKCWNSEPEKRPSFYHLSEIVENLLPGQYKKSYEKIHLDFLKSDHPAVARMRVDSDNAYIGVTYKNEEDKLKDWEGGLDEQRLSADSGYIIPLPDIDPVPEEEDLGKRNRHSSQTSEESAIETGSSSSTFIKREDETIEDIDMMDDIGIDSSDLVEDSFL
Sequence of P38-b (Q15759 whole entry, species assumed): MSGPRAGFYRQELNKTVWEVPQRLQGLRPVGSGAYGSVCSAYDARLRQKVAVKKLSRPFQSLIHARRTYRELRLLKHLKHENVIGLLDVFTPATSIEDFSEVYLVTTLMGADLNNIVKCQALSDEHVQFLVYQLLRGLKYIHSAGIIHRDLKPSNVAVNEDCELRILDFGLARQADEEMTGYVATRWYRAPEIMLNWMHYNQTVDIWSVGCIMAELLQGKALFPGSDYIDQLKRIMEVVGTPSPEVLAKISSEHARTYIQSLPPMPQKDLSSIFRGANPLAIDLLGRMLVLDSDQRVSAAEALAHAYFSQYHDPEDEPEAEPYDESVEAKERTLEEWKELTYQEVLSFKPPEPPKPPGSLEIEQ
Sequence of HIPK3 (Q9H422 whole entry, species assumed): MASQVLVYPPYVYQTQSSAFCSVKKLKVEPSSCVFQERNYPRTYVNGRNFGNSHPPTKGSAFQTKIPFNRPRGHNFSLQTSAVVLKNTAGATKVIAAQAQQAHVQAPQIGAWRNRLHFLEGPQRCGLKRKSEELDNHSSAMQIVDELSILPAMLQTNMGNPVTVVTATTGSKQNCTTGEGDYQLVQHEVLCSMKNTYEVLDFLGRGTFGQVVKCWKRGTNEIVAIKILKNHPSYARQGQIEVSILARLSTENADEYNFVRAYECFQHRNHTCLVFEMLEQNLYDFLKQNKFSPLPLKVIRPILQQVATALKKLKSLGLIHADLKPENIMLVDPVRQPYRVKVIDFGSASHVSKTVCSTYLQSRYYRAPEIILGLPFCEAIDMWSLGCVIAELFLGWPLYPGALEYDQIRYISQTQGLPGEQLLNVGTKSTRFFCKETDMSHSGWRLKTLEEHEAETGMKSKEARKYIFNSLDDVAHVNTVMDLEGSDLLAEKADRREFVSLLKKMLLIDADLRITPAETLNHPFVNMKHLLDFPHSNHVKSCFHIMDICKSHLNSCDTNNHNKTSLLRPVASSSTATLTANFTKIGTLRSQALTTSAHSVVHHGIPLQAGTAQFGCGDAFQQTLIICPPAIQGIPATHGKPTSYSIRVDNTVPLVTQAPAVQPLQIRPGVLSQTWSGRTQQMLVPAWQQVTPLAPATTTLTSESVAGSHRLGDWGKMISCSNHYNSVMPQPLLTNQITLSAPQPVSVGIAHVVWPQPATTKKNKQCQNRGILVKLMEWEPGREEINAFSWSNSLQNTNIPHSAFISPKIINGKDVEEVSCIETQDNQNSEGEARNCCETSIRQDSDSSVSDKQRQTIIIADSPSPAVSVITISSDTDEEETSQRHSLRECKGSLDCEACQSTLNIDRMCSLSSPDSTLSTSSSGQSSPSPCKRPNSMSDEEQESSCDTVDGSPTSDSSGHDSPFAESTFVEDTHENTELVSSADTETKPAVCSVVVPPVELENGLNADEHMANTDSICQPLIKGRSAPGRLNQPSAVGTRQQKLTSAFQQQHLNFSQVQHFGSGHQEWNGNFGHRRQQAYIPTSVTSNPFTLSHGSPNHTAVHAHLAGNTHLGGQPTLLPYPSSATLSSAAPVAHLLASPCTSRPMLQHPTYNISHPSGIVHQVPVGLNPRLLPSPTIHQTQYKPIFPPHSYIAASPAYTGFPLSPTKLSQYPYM

As a reminder, the inhibition is the change of the read-out against control, counted positive when it falls. Regarding `CNC(=O)c1ccc(Oc2ccc(NC(=O)c3nc(Cl)oc3-c3ccc(F)cc3)c(F)c2)cn1` [Compound 36], the inhibition at 5 µM was less than 50% in assay [1]; less than 50% in assay [2]; less than 50% in assay [3]; less than 50% in assay [4]; 50 to 79% in assay [5]; less than 50% in assay [6]. For the same molecule, in assay [7], the inhibition at 5 µM was less than 50%.

With `CSc1nc(C(=O)Nc2ccc(Oc3ccnc(C(=O)NC4COC4)c3)c(F)c2)c(-c2ccc(F)c(F)c2)o1` [Compound 37], the inhibition at 5 µM in assay [1], in assay [2], in assay [3], in assay [4], in assay [5] and in assay [6] was less than 50% throughout. The inhibition at 5 µM in assay [7] was less than 50%.

For `CNC(=O)c1cc(Oc2ccc(NC(=O)c3nc(OCC(F)(F)F)oc3-c3ccc(F)cc3)cc2F)ccn1` [Compound 38], the inhibition at 5 µM in assay [1] is 50 to 79%; in assay [2], less than 50%; in assay [3], less than 50%; in assay [4] it was less than 50%; in assay [5] it was 50 to 79%; in assay [6], less than 50%. The inhibition at 5 µM in assay [7] lay within 50 to 79%.

Regarding `COc1nc(C(=O)Nc2ccc(Oc3ccnc(C(=O)NC4COC4)c3)c(F)c2)c(-c2ccc(F)cc2)o1` [Compound 39], the inhibition at 5 µM in assay [1], in assay [2], in assay [3], in assay [4], in assay [5] and in assay [6] was less than 50% each time. Further, the inhibition at 5 µM in assay [7] is 50 to 79%.

On to `CSc1nc(C(=O)Nc2ccc(Oc3ccnc(C(=O)NCC(F)(F)F)c3)c(F)c2)c(-c2ccc(F)cc2)o1` [Compound 40], for which the inhibition at 5 µM in assay [1], in assay [2], in assay [3], in assay [4], in assay [5] and in assay [6] was less than 50% throughout. In addition, in assay [7], the inhibition at 5 µM was less than 50%.

As to `CSc1nc(C(=O)Nc2ccc(Oc3ccnc(C(=O)NCCN(C)C)c3)c(F)c2)c(-c2ccc(F)cc2)o1` [Compound 41], the inhibition at 5 µM in assay [1] is 50 to 79%; in assay [2] it was less than 50%; in assay [3] it was 80 to 89%; in assay [4], less than 50%; in assay [5], less than 50%; in assay [6], less than 50%. Besides, the inhibition at 5 µM in assay [7] is 50 to 79%.

Turning to `CSc1nc(C(=O)Nc2ccc(Oc3ccnc(C(=O)NC4CCN(C)CC4)c3)c(F)c2)c(-c2ccc(F)cc2)o1` [Compound 42], the inhibition at 5 µM in assay [1] is less than 50%; in assay [2] it was less than 50%; in assay [3], 80 to 89%; in assay [4] it was less than 50%; in assay [5], 50 to 79%; in assay [6] it was less than 50%. In addition, in assay [7], the inhibition at 5 µM is less than 50%.

With `COc1nc(C(=O)Nc2ccc(Oc3ccnc(C(=O)NCC(F)(F)F)c3)c(F)c2)c(-c2ccc(F)cc2)o1` [Compound 43], the inhibition at 5 µM in assay [1], in assay [2], in assay [3], in assay [4], in assay [5] and in assay [6] was less than 50% each time. Besides, the inhibition at 5 µM in assay [7] is less than 50%.
